Data published in the supplement of paper PMC10307832.

What was measured:
Assay in all cases: relative viability (nuclei count vs DMSO), 5 days (fraction); higher = more cells survive
NCI-H322M = system: NCI-H322M
How it was run: (§1)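 A single step with final 0.05% Triton X-100, 1% formaldehyde and 1 ug/ml Hoechst fixed the cells and stained nuclei 5 days after treatment. Lung cancer cell lines in 1536-well plates had been treated by pin tool the day after seeding with one drug alone or a fixed anchor-drug dose plus five library-drug doses (not always all listed) in √10 steps, and nuclei were counted on 4× images. Relative viability is the ratio of nuclei in treated wells to nuclei in vehicle wells, taken as the median of duplicate plates.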

NCI-H647 = system: NCI-H647
How it was run: as §1

A-427 = system: A-427
How it was run: as §1

NCI-H1915 = system: NCI-H1915
How it was run: as §1

LK-2 = system: LK-2
How it was run: as §1

NCI-H1944 = system: NCI-H1944
How it was run: as §1

NCI-H838 = system: NCI-H838
How it was run: as §1

NCI-H2023 = system: NCI-H2023
How it was run: as §1

RERF-LC-KJ = system: RERF-LC-KJ
How it was run: as §1

NCI-H1734 = system: NCI-H1734
How it was run: as §1

LC-2-ad = system: LC-2-ad
How it was run: as §1

`CCNC(=O)c1noc(-c2cc(C(C)C)c(O)cc2O)c1-c1ccc(CN2CCOCC2)cc1` [Luminespib] + CC(=O)Nc1cccc(-n2c(=O)n(C3CC3)c(=O)c3c(Nc4ccc(I)cc4F)n(C)c(=O)c(C)c32)c1 [Trametinib] (partner 0.02 µM) was tested, and the relative viability (NCI-H322M; first compound 0.002 µM) was 0.494, the relative viability (NCI-H322M; first compound 0.006325 µM) was 0.535 and the relative viability (NCI-H322M; first compound 0.02 µM) was 0.453. For the same compound, the relative viability (NCI-H322M; first compound 0.06325 µM) was 0.456, the relative viability (NCI-H322M; first compound 0.2 µM) was 0.407 and the relative viability (NCI-H647; first compound 0.002 µM) was 0.507. For the same compound, the relative viability (NCI-H647; first compound 0.006325 µM) was 0.508, the relative viability (NCI-H647; first compound 0.02 µM) was 0.195 and the relative viability (NCI-H647; first compound 0.06325 µM) was 0.0973. For the same compound, the relative viability (NCI-H647; first compound 0.2 µM) was 0.0815, the relative viability (A-427; first compound 0.002 µM) was 0.771 and the relative viability (A-427; first compound 0.006325 µM) was 0.74. It also gave a relative viability (A-427; first compound 0.02 µM) of 0.632, a relative viability (A-427; first compound 0.06325 µM) of 0.607 and a relative viability (A-427; first compound 0.2 µM) of 0.281. The relative viability (NCI-H1915; first compound 0.002 µM) was 0.316, the relative viability (NCI-H1915; first compound 0.006325 µM) was 0.287 and the relative viability (NCI-H1915; first compound 0.02 µM) was 0.244. For the same compound, the relative viability (NCI-H1915; first compound 0.06325 µM) was 0.254, the relative viability (NCI-H1915; first compound 0.2 µM) was 0.161 and the relative viability (LK-2; first compound 0.002 µM) was 0.834. The relative viability (LK-2; first compound 0.006325 µM) was 0.711, the relative viability (LK-2; first compound 0.02 µM) was 0.637 and the relative viability (LK-2; first compound 0.06325 µM) was 0.164. For the same compound, the relative viability (LK-2; first compound 0.2 µM) was 0.166, the relative viability (NCI-H1944; first compound 0.002 µM) was 0.467 and the relative viability (NCI-H1944; first compound 0.006325 µM) was 0.4. It also gave a relative viability (NCI-H1944; first compound 0.02 µM) of 0.387, a relative viability (NCI-H1944; first compound 0.06325 µM) of 0.405 and a relative viability (NCI-H1944; first compound 0.2 µM) of 0.354. It also gave a relative viability (NCI-H838; first compound 0.002 µM) of 0.582, a relative viability (NCI-H838; first compound 0.006325 µM) of 0.474 and a relative viability (NCI-H838; first compound 0.02 µM) of 0.294. For the same compound, the relative viability (NCI-H838; first compound 0.06325 µM) was 0.093, the relative viability (NCI-H838; first compound 0.2 µM) was 0.134 and the relative viability (NCI-H2023; first compound 0.002 µM) was 0.49. It also gave a relative viability (NCI-H2023; first compound 0.006325 µM) of 0.56, a relative viability (NCI-H2023; first compound 0.02 µM) of 0.39 and a relative viability (NCI-H2023; first compound 0.06325 µM) of 0.0742. For the same compound, the relative viability (NCI-H2023; first compound 0.2 µM) was 0.0679, the relative viability (RERF-LC-KJ; first compound 0.002 µM) was 0.867 and the relative viability (RERF-LC-KJ; first compound 0.006325 µM) was 0.903. It also gave a relative viability (RERF-LC-KJ; first compound 0.02 µM) of 0.711, a relative viability (RERF-LC-KJ; first compound 0.06325 µM) of 0.437 and a relative viability (RERF-LC-KJ; first compound 0.2 µM) of 0.21. It also gave a relative viability (NCI-H1734; first compound 0.002 µM) of 0.65, a relative viability (NCI-H1734; first compound 0.006325 µM) of 0.586 and a relative viability (NCI-H1734; first compound 0.02 µM) of 0.579. For the same compound, the relative viability (NCI-H1734; first compound 0.06325 µM) was 0.199, the relative viability (NCI-H1734; first compound 0.2 µM) was 0.172 and the relative viability (LC-2-ad; first compound 0.002 µM) was 0.926. It also gave a relative viability (LC-2-ad; first compound 0.006325 µM) of 0.903, a relative viability (LC-2-ad; first compound 0.02 µM) of 1.06 and a relative viability (LC-2-ad; first compound 0.06325 µM) of 0.889. The relative viability (LC-2-ad; first compound 0.2 µM) was 0.647.
